Experiments:
[1] = molecular target: T1, BTK-1h (Homo sapiens, UniProt Q06187); test: High-throughput screening with 1h-labeled BTK; assay type: binding
T1 construct: The BTK kinase domain was diluted to 2 μM in the buffer, and 2 μM 1h was added; made in house
Description: The collection was composed of BTK binding compounds obtained in our previous luminescence screen[37] (Data set S2). […] The resulting BTK-1h (50 μL) was added to the inhibitors.

[2] = molecular target: BTK (Homo sapiens, UniProt Q06187); parameters: BTK kinase domain was expressed and purified as previously reported; made in house; method as in Reddi et al., J. Am. Chem. Soc. 2021, 143 (13), 4979–4992; conditions: ref Reddi et al., J. Am. Chem. Soc. 2021, 143 (13), 4979–4992; cited from earlier work
[3] = Dataset S2A, 200 μM compound, BTK-1h, 32 °C, 10 min
[4] = Dataset S2C, BTK-1h with inhibitor

Chain of BTK (Q06187 402-655 limits assumed): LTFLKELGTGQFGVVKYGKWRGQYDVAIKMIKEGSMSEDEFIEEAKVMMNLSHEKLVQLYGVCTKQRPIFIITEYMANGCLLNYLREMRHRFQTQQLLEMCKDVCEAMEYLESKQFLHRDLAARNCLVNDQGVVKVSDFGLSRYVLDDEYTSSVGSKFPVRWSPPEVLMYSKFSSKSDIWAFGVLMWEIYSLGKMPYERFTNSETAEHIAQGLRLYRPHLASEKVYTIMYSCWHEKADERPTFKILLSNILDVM
T1 sequence (Q06187 402-655): as the sequence (Q06187 402-655 limits assumed) above

FI (650)/FI (620) [1, 3]	FI (BTK-1h)/FI (BTK-1h+Inhibitor) at 620 nm [1, 3]	Compound	BTK Inhibition reported in luminescence assay* [2]	FI (650)/FI (620) [1, 4]
0.9167	1.042	CC(C)N1CCN(Cc2cnc(-c3cc(-c4cccc5[nH]ccc45)cc4[nH]ncc34)o2)CC1 [PCM-0213407-002]	51.7	
1.072	1.041	C=CC(=O)Nc1ccc(CN2C(=O)N(c3cc(OC)cc(OC)c3)Cc3cnc(Nc4ccc(N5CCN(C)CC5)cc4)nc32)cc1 [PCM-0215559-001]	88.3	
1.503	1.506	O=C(Nc1cccc2c(=O)cc(-c3nn[nH]n3)oc12)c1ccc(OCCCCc2ccccc2)cc1 [PCM-0095155-002]	73.8	
1.023	1.082	C=CC(=O)N1CCC(Oc2cc3c(Nc4ccc(Cl)c(Cl)c4F)ncnc3cc2OC)CC1 [PCM-0215416-001]	119.3	
1.014	1.145	CN1CCN(Cc2ccc(NC(=O)Nc3ccc(Oc4cc(NC(=O)C5CC5)ncn4)cc3)cc2C(F)(F)F)CC1 [PCM-0215388-001]	79.5	
1.147	1.02	Cc1nc(Nc2ccc(F)cc2)nc(N2CCc3ccccc3C2C)c1C.Cl (stereo not drawn) [PCM-0216015-001]	79.3	
1.123	1.039	CC(C)(C)c1cc(NC(=O)Nc2ccc(Oc3ccnc4[nH]c(=O)cnc34)cc2F)n(-c2ccccc2)n1 [PCM-0215780-001]	61.4	
0.8396	1.036	O=c1cc(-c2ccc(O)cc2)oc2cc(O)cc(O)c12 [PCM-0064643-001]	63.8	
1.58	1.142	CC/C(=C(/c1ccc(/C=C/C(=O)O)cc1)c1ccc2[nH]ncc2c1)c1ccc(F)cc1Cl [PCM-0216010-001]	81.1	
0.9809	1.022	COc1ccc(CC(=O)Nc2nc3c(s2)CCc2ccccc2-3)cc1OC [PCM-0215753-001]	55.9	
2.385	1.063	COc1cc(O)c2c(=O)cc(-c3ccc(O)c(O)c3)oc2c1 [PCM-0216461-001]	61	
1.0081	1.015	CC(C)=CCc1cc2c(cc1O)O[C@H](c1ccc(O)cc1)CC2=O [PCM-0216180-001]	54.1	
0.6133	1.029	COCCCc1sc(-c2ccccc2)nc1C(=O)Nc1ccccc1-c1nc2cc(CN3CCCC3)cnc2s1.Cl [PCM-0215812-001]	57.9	
1.794	1.194	CN1c2ccccc2C(=O)Nc2cnc(Nc3ccc(N4CCC(O)CC4)cc3)nc21 [PCM-0215745-001]	93.8	
1.102	1.063	Cc1cc(O)c(-c2ccc([C@@H](C)CN)cc2)c2c1[nH]c(=O)c1sccc12 [PCM-0215772-001]	70.3	
1.022	1.075	Cc1ccc(C(=O)Nc2ccc(CN3CCN(C)CC3)c(C(F)(F)F)c2)cc1C#Cc1cnc2cccnn12 [PCM-0095174-003]	92.4	
2.2858	1.798	O=C(Nc1c[nH]nc1-c1nc2ccc(CN3CCOCC3)cc2[nH]1)NC1CC1 [PCM-0094942-002, AT9283]	93.8	1.798
1.233	1.12	CCS(=O)(=O)N1CCN(c2ccc(Nc3ncc(C(N)=O)c(NC4CC4)n3)cc2)CC1.Cl [PCM-0215389-001]	85.5	
2.739	1.077	CCOC(=O)c1ccc(N2NC(=O)/C(=C/c3ccc([N+](=O)[O-])o3)C2=O)cc1 [PCM-0095807-002]	64.9	

FI (650)/FI (620) [1, 3]	FI (BTK-1h)/FI (BTK-1h+Inhibitor) at 620 nm [1, 3]	Compound	BTK Inhibition reported in luminescence assay* [2]	FI (650)/FI (620) [1, 4]
0.933	1.031	O=c1c(O)c(-c2ccc(O)cc2)oc2cc(O)cc(O)c12 [PCM-0087037-002]	67.7	
1.203	0.9862	COc1ccc2cc3[n+](cc2c1O)CCc1cc2c(cc1-3)OCO2.[Cl-] [PCM-0216489-001]	97.3	
1.023	1.009	Oc1ccc(Nc2nc(-c3ccc(Cl)cc3)cs2)cc1 [PCM-0095692-002]	84.8	
1.569	1.288	C=CC(=O)Nc1cccc(Nc2nc(Nc3ccc(OCCOC)cc3)ncc2F)c1 [PCM-0095787-002]	90.3	
0.9511	1.031	COc1c(-c2ccc3cc(NS(C)(=O)=O)ccc3c2)cc(-n2ccc(=O)[nH]c2=O)cc1C(C)(C)C [PCM-0216081-001]	73.4	
1.059	1.045	COS(=O)(=O)[O-].C[n+]1c2ccccc2nc2ccccc21 [PCM-0216061-001]	64.9	
0.9972	1.029	CN(Cc1ccc(C(C)(C)C)cc1)Cc1cccc2ccccc12.Cl [PCM-0086068-001]	62.3	
2.125	1.0702	O=c1cc(-c2ccc(O)c(O)c2)oc2cc(O)cc(O)c12 [PCM-0086559-001]	84.8	
1.491	1.033	CC(=O)Nc1nc(-c2cccc(NS(=O)(=O)c3cccc4c(N(C)C)cccc34)c2)cs1 [PCM-0215679-001]	97.3	
1.167	1.045	O=C(Nc1ccc(OC(F)(F)F)cc1)c1sccc1NCc1ccnc2ccccc12 [PCM-0094951-002]	90.3	
0.9612	1.053	Cc1cnc(C(=O)N[C@H]2CCCCC/C=C\[C@@H]3C[C@@]3(C(=O)NS(=O)(=O)C3CC3)NC(=O)[C@@H]3C[C@@H](Oc4nc5ccccc5c5ccccc45)CN3C2=O)cn1 [PCM-0216057-001]	53.3	
1.86	1.055	O=C(NCCCNc1nc(Nc2cccc(NC(=O)N3CCCC3)c2)ncc1I)c1cccs1 [PCM-0095061-002]	60	
1.013	1.019	CC(=O)O/N=C1/C(c2c(O)[nH]c3cc(Br)ccc23)=Nc2ccccc21 [PCM-0215536-001]	60.7	
1.5271	1.051	COc1cc(-c2oc3cc(O)cc(O)c3c(=O)c2O)ccc1O [PCM-0216402-001]	73.4	
	7.121	Cc1cc(-c2ccc(N=Nc3ccc4c(S(=O)(=O)[O-])cc(S(=O)(=O)[O-])c(N)c4c3O)c(C)c2)ccc1N=Nc1ccc2c(S(=O)(=O)[O-])cc(S(=O)(=O)[O-])c(N)c2c1O.[Na+].[Na+].[Na+].[Na+] [PCM-0214845-001]	125.3	
1.149	1.02	C=CC(=O)Nc1cccc(Oc2nc(Nc3ccc(N4CCN(C)CC4)cc3)ncc2Cl)c1 [PCM-0095023-002]	91.7	
0.5899	0.9902	CCCCCCCCCCCCCCCC(=O)O[C@@H]1[C@@H](O)[C@@H](O)[C@@H]([C@H](NC(=O)[C@@H]2C[C@@H](CCC)CN2C)[C@H](C)Cl)O[C@@H]1SC.Cl [PCM-0215167-001]	73.2	
0.8568	1.076	CCOc1nc2cccc(C(=O)OC(C)OC(=O)OC3CCCCC3)c2n1Cc1ccc(-c2ccccc2-c2nn[nH]n2)cc1 (stereo not drawn) [PCM-0090385-001]	53.7	
1.285	1.0276	OC1CCC(Oc2cccc3cnc(Nc4ccc5nc[nH]c5c4)nc23)CC1 (stereo not drawn) [PCM-0215798-001]	66.2	

Compound	FI (650)/FI (620) [1, 3]	FI (BTK-1h)/FI (BTK-1h+Inhibitor) at 620 nm [1, 3]	BTK Inhibition reported in luminescence assay* [2]	FI (650)/FI (620) [1, 4]
O=C(O)c1cc(O)c2c(c1)[C@@H]([C@H]1c3cc(C(=O)O)cc(O)c3C(=O)c3c(O[C@@H]4O[C@H](CO)[C@@H](O)[C@H](O)[C@H]4O)cccc31)c1cccc(O[C@@H]3O[C@H](CO)[C@@H](O)[C@H](O)[C@H]3O)c1C2=O [PCM-0086913-003, Sennoside B]		1.82	84.1	1.82
